# Read-outs that look alike come from different tables or passages of the source.
# Assays:
# [1] = for Content (%) / Related substances (%) Levozopiclone / Related substances (%) Other impurities: Strong light exposure (4500±500 Lx)
# Excerpt: The specimens were sampled on the 5th and 10th day respectively to measure their stability in accordance with the key stability-relevant items.
# [2] = High temperature (60° C.) stability test; conditions: for Content (%) / Related substances (%) Levozopiclone / Related substances (%) Other impurities: High temperature (60° C.)
# Protocol: The crystalline form of S-zopiclone of the present invention was introduced into an open and colorless transparent weighing-bottle batch by batch, and placed in a thermostat container (60° C.) for 10 days. The specimens were sampled on the 5th and 10th day respectively to measure their stability in accordance with the key stability-relevant items.
# [3] = Safety after single oral administration in healthy volunteers; assay type: in vivo, human
# Protocol: Safety indices: a series of indices were measured when conducting screening and 24 hours after administration, including vital signs, physical examination, ECG and laboratory test. During the test, adverse event was recorded on time.
# Safety: meaningful clinical safety indices are tabulated according to the type and the frequency thereof.
# Bitter taste in mouth was reported as severe adverse reaction by a majority of subjects (25%˜40%), and another adverse reaction was dizziness and headache. […] Two subjects in the group of the dose of 12 mg/kg BW experienced the state of delirium, including talkativeness, hyperactivity and unconsciousness. […] Within 12 hours after administration, all adverse reactions disappeared without special treatment.
# [4] = test system: Male Long-Evans rats; experiment: Test of spontaneous activity; assay type: in vivo, rat; conditions: 10 mg/Kg body weight
# Protocol: Male Long-Evans rats (weighing 250˜275 g) were adopted, divided into 3 groups, and fed in a 12-hour light-dark cycle. After one week of feeding, the experiment was carried out.
# Horizontal activity of rats had been observed under an open circumstance to measure a total spontaneous activity. Respectively, all animals were placed into 8 black light-proof rooms, and their spontaneous activities were monitored by an infrared sensor mounted on the wall at equal intervals to record once every 10 minutes for 120 minutes.
# The crystalline form of S-zopiclone was administrated to the animals at a dose of 10 mg/Kg body weight. 30˜60 minutes after administration, the inhibitory effect on the locomotor ability reached a peak, and disappeared after 2 hours.
# [5] = Pharmacokinetic study of single oral administration in healthy volunteers; assay type: in vivo, human
# Protocol: Evaluation of pharmacokinetics: according to the results of phase I clinical tolerance trial and the pre-designed therapeutic dose of phase II clinical trial, a high dose of 11. 25 mg/kg BW (body weight) can be tolerated by all volunteers in tolerance test, three different dose groups had been set as follows: low dose group, moderate dose group and high dose group were 3, 6 and 12 mg/kg BW, respectively. Three-way crossover Latin square design was used. All subjects were randomly divided into 3 test groups, and the tested drug at different doses was administrated to the subjects when performing each test. Thus, after 3 tests, each subject had been administrated with the testing drug at high, moderate and low dose by following the Latin square design procedure. The interval between two tests was 2 weeks.
# After a single oral administration of the tested drug, 6 ml anticoagulant heparin venous blood samples were collected at 0th (immediately before administration), 15th minute, 30th minute, 45th minute, 60th minute, 1.5th hour, 2nd hour, 3rd hour, 4th hour, 6th hour, 8th hour, 12th hour, 16th hour and 24th hour respectively to determine the concentration of S-zopiclone. By HPLC, the plasma drug concentration of each subject had been determined at different time-points to give a concentration-time curve. The main pharmacokinetic parameters of the subjects had been calculated, including AUC, Cmax, Tmax, AUC0˜α, AUC0-t and t1/2, etc.
# The crystalline form of S-zopiclone was prepared into coated tablets (3 mg S-zopiclone/tablet) in accordance with Example 1 and Example 9, single orally administrated.
# Pharmacokinetic indices: the plasma drug concentration had been determined immediately before administration and at different time-points after administration of the drug to give a concentration-time curve. The main pharmacokinetic parameters had been calculated, including Cmax, Tmax, AUC0˜α, AUC0-t and t1/2, etc.
# Pharmacokinetic: 3P97 statistical analysis software had been applied to calculate the main pharmacokinetic parameters.
# [6] = Long-term reserved-sample stability test; assay type: physicochemical; conditions: room temperature
# Excerpt: The crystalline form of S-zopiclone was packaged in packages simulated the commercial ones, and placed at room temperature. The specimens were sampled on the 3rd, 6th, 9th, 12th, 18th, 24th, and 36th month respectively to measure their stability in accordance with the key stability-relevant items.
# [7] = 3 mg single oral administration
# [8] = 6 mg single oral administration
# [9] = 12 mg single oral administration
compound,measurement,setting,value
"CN1CCN(C(=O)O[C@H]2c3nccnc3C(=O)N2c2ccc(Cl)cn2)CC1 [crystalline form of S-zopiclone, (+)-(S)-(4-methylpiperazine-1-carboxylate)(6-(5-chloropyridinyl-2-yl)-7-carbonyl-6,7-dihydro-5-H-pyrrolo[3,4-b]pyrazin-5-yl ester)]","stability (character, melting point, related substances versus 0th day)",[1]; 10 days of strong light exposure (4500±500 Lx),remained stable
same,Content (%),[1]; day 0,100.06%
same,Related substances (%) Levozopiclone,[1]; day 0,0.06%
same,Related substances (%) Other impurities,[1]; day 0,0.09%
same,Content (%),[1]; day 5,99.77%
same,Related substances (%) Levozopiclone,[1]; day 5,0.08%
same,Related substances (%) Other impurities,[1]; day 5,0.10%
same,Content (%),[1]; day 10,100.02%
same,Related substances (%) Levozopiclone,[1]; day 10,0.07%
same,Related substances (%) Other impurities,[1]; day 10,0.11%
same,"stability (character, melting point, related substances versus 0th day)",[2]; 10 days of high-temperature (60° C.),stable
same,Content (%),[2]; day 0,100.06%
same,Related substances (%) Levozopiclone,[2]; day 0,0.06%
same,Related substances (%) Other impurities,[2]; day 0,0.09%
same,Content (%),[2]; day 5,100.01%
same,Related substances (%) Levozopiclone,[2]; day 5,0.08%
same,Related substances (%) Other impurities,[2]; day 5,0.11%
same,Content (%),[2]; day 10,100.12%
same,Related substances (%) Levozopiclone,[2]; day 10,0.07%
same,Related substances (%) Other impurities,[2]; day 10,0.12%
same,"subjects experiencing the state of delirium (talkativeness, hyperactivity, unconsciousness)",[3]; 12 mg dose group,Two subjects
same,types and frequencies of adverse reactions versus low and moderate dose groups,[3]; high dose group (12 mg),more types and higher frequencies of adverse reactions
same,time after administration within which all adverse reactions disappeared,[3]; without special treatment,≤ 12 h
same,time after which inhibitory effect on the locomotor ability disappeared,[4],2 h
same,AUC0-∞,[5]; [7],259.66 ± 92.58 µg/h/L
same,Cmax,[5]; [7],33.96 ± 8.63 µg/L
same,Tmax,[5]; [7],1.50 ± 0.66 h
same,plasma clearance,[5]; [7],14.10 ± 4.5 L/h
same,t1/2,[5]; [7],6.98 ± 0.99 h
same,AUC0-∞,[5]; [8],404.21 ± 73.32 µg/h/L
same,Cmax,[5]; [8],60.94 ± 11.44 µg/L
same,Tmax,[5]; [8],1.28 ± 0.43 h
same,plasma clearance,[5]; [8],15.80 ± 3.0 L/h
same,t1/2,[5]; [8],8.20 ± 6.14 h
same,AUC0-∞,[5]; [9],1291.26 ± 426.68 µg/h/L
same,Cmax,[5]; [9],182.72 ± 67.44 µg/L
same,Tmax,[5]; [9],1.58 ± 0.40 h
same,plasma clearance,[5]; [9],10.90 ± 5.00 L/h
same,t1/2,[5]; [9],8.06 ± 2.82 h
same,"stability (character, melting point, related substances versus 0th day)","[6]; long-term reserved-sample test, up to 36 months",remained stable
same,Content (%),[6]; month 0,100.06%
same,Related substances (%) Levozopiclone,[6]; month 0,0.06%
same,Related substances (%) Other impurities,[6]; month 0,0.09%
same,Content (%),[6]; month 3,100.3%
same,Related substances (%) Levozopiclone,[6]; month 3,0.06%
same,Related substances (%) Other impurities,[6]; month 3,0.11%
same,Content (%),[6]; month 6,100.21%
same,Related substances (%) Levozopiclone,[6]; month 6,0.06%
same,Related substances (%) Other impurities,[6]; month 6,0.14%
same,Content (%),[6]; month 9,100.16%
same,Related substances (%) Levozopiclone,[6]; month 9,0.04%
same,Related substances (%) Other impurities,[6]; month 9,0.14%
same,Content (%),[6]; month 12,100.08%
same,Related substances (%) Levozopiclone,[6]; month 12,0.06%
same,Related substances (%) Other impurities,[6]; month 12,0.14%
same,Content (%),[6]; month 18,100.12%
same,Related substances (%) Levozopiclone,[6]; month 18,0.07%
same,Related substances (%) Other impurities,[6]; month 18,0.17%
same,Content (%),[6]; month 24,99.80%
same,Related substances (%) Levozopiclone,[6]; month 24,0.07%
same,Related substances (%) Other impurities,[6]; month 24,0.18%
same,Content (%),[6]; month 36,100.06%
same,Related substances (%) Levozopiclone,[6]; month 36,0.07%
same,Related substances (%) Other impurities,[6]; month 36,0.20%

# Reference: patent US8431577B2, “Crystalline form of eszopiclone, composition, preparation and uses thereof” (Tianjin Tasly Group Co., Ltd., priority 2008, dated 2013)
